Data taken from PMC9612005 (Pharmaceutics, 2022).

System: cone photoreceptors
Experiment: µERG a-wave of mouse retinal explants on MEA, photopic (light-adapted) stimulation
Assay type: cell-based
Settings: for decrease in the a-wave slope vs control / a-wave amplitude / a-wave slope: photopic; for decrease in the a-wave slope vs control: averaged; for decrease in the a-wave slope vs control / cone a-wave responses under photopic stimulation: inhibitor 50 µM, activator 0.1 µM; for a-wave amplitude / a-wave slope: inh 50 µM, act 0.1 µM, mean ±std; for cone a-wave responses under photopic stimulation: ≥+0.5 log
Procedure: Further animal experiments were performed using adult postnatal-day (P) 25–30 C57BL/6J mice (n = 12). Animals were housed under standard 12 h white cyclic lighting, had free access to food, water, and playgrounds, and were used irrespective of gender. Animal protocols compliant with §4 of the German law on animal protection were reviewed and approved by the Tübingen University committee on animal protection, and registered on 30 March 2022 under the No. AK05/22M. Moreover, experiments were performed in accordance with the ARVO statement for the use of animals in ophthalmic and visual research. All efforts were made to minimize the number of mice used and their suffering.
The mice were kept overnight in a ventilated light-tight box for dark-adaption. Subsequent procedures were performed under dim red light. The eyes of the mice were enucleated; then, the retina was isolated in extracellular solution containing (in mM): 125 NaCl, 26 NaHCO3, 2.5 KCl, 2 CaCl2, 1 MgCl2, 1.25 NaH2PO4, and 20 glucose, and was maintained at pH 7.4 using carboxygen perfusion (95/5% O2/CO2). All chemicals were obtained from Merck KGaA (Darmstadt, Germany). For MEA recording, the retinas were placed in the MEA-recording chamber (GC-side down). During the recordings, the tissue was perfused with carboxygenated medium at 32 °C. The chamber perfusion rate was adjusted to 2 mL/min.
Electrophysiological recordings were performed to assess the light dependent retinal responses (photoreceptors µERG and RGCs spikes) by means of a multi-electrode array system (MEA, USB-MEA60-Up-BC-System-E from Multi Channel Systems, Reutlingen, Germany) equipped with MEA 200/30iR-ITO-pr. The recordings were performed at a 25,000 Hz sampling-rate collecting unfiltered raw data. The trigger-synchronized operation of the light stimulation (LEDD1B T-Cube, Thorlabs) and MEA recording were controlled by the recording protocol set within the MCRack software (v 4.6.2, Multi Channel Systems, Reutlingen, Germany) and the digital I/O box (MCS). The light stimulation (white light LED, 2350 mW, MCWHD3, Thorlabs, Newton, NJ, USA) was applied from beneath the transparent glass MEA, guided by optic fiber and optics. A spectrometer USB4000-UV-VIS-ES (Ocean Optics, Orlando, FL, USA) was employed to calibrate the intensity of the applied light-stimulation protocol. To discriminate the rod and cone photoreceptor responses, a light-stimulation protocol for ex vivo MEA recordings was established following the standard in-vivo ERG protocol. For scotopic recordings (rod responses), the animals were dark-adapted (12 h), while for the photopic recordings (cone responses), the retinal explants were light-adapted on the MEA (5 min at intensity of 4.20 × 10^13 photons/cm^2/s), subsequent to scotopic stimulation. The parameters of the light stimuli were set as: light flash 250 ms long (3 repetition per light intensity, 20 s interval). Scotopic: 10 stimuli in 0.5 log steps from −4.5 to 0.0 (1.33 × 10^9–4.20 × 10^13 photons/cm^2/s). Photopic (background light: 4.20 × 10^13 photons/cm^2/s): four stimuli in 0.5 log steps from +0.5 to +2.0 (1.33 × 10^14–4.20 × 10^15 photons/cm^2/s).
MEA-recorded raw data files were filtered employing a Butterworth 2nd order filter (MC-Rack, Multi-channel systems) to extract the µERG (field potentials: bandpass 0.01–100 Hz) and spikes (high pass 200 Hz). The filtered data were converted to *.hdf files by MC DataManager (v1.6.1.0, Multi Channel Systems, Reutlingen, Germany) for further data processing in MATLAB [39]. Shown traces data are the average of 30 MEA recording electrodes, per condition. n = 5 retinae were recorded per condition. Statistical significance was estimated by one-way ANOVA followed by the Dunnett´s test for multiple comparisons. […]

| Structure (SMILES) | decrease in the a-wave slope vs control | a-wave amplitude (light intensity +0.5 log) | a-wave slope (light intensity +0.5 log) | a-wave amplitude (light intensity +1.0 log) | a-wave slope (light intensity +1.0 log) | a-wave amplitude (light intensity +1.5 log) | a-wave slope (light intensity +1.5 log) | a-wave amplitude (light intensity +2.0 log) | a-wave slope (light intensity +2.0 log) | cone a-wave responses under photopic stimulation |
| --- | --- | --- | --- | --- | --- | --- | --- | --- | --- | --- |
| Nc1nc2c(nc(Sc3ccc(Cl)cc3)n2[C@@H]2O[C@@H]3COP(=O)(O)O[C@H]3[C@H]2O)c(=O)[nH]1 [8-pCPT-cGMP] | ~ 60% | -3.04± 1.68 µV | -0.04± 0.06 µV / 20 ms | -7.72± 1.37 µV | 0.07± 0.22 µV / 20 ms | -10.79± 1.41 µV | -0.18± 0.09 µV / 20 ms | -12.55± 1.72 µV | -0.23± 0.11 µV / 20 ms | no effect on cones |
| O=c1c2nc(Br)n([C@@H]3O[C@@H]4CO[P@@](=O)(S)O[C@H]4[C@H]3O)c2nc2[nH]c(-c3ccccc3)cn12 [Rp-8-Br-PET-cGMPS] | ~90% | -1.53± 0.76 µV | 0.03± 0.02 µV / 20 ms | -1.98± 0.87 µV | -0.04± 0.02 µV / 20 ms | -1.96± 0.89 µV | -0.05± 0.05 µV / 20 ms | -2.27± 0.97 µV | -0.01± 0.01 µV / 20 ms | the cone a-wave amplitudes showed only minimal increases |
